Results from the NIST ThermoML archive (doi:10.1016/j.jct.2011.11.025).
± gives the expanded uncertainty stated by the source.

Assay: activity coefficient (dimensionless); of the first substance listed, at infinite dilution; xn = mol fraction of the nth substance listed
Details: Liquid, Chromatography, x1 = 0

SMILES | activity coefficient (318.15 K) | activity coefficient (328.15 K) | activity coefficient (338.15 K) | activity coefficient (348.15 K) | activity coefficient (358.15 K) | activity coefficient (368.15 K)
C=CCCCC [hex-1-ene] + CCCCCCn1cc[n+](C)c1.N#C[B-](C#N)(C#N)C#N | 6.13 ± 0.28 | 5.88 ± 0.27 | 5.71 ± 0.26 | 5.58 ± 0.26 | 5.44 ± 0.25 | 5.35 ± 0.24
CCC(C)O (configuration not stated) [butan-2-ol] + CCCCCCn1cc[n+](C)c1.N#C[B-](C#N)(C#N)C#N | 1.27 ± 0.04 | 1.17 ± 0.04 | 1.1 ± 0.1 | 1.03 ± 0.03 | 0.977 ± 0.025 | 0.938 ± 0.026
c1ccccc1 [benzene] + CCCCCCn1cc[n+](C)c1.N#C[B-](C#N)(C#N)C#N | 0.733 ± 0.029 | 0.743 ± 0.029 | 0.758 ± 0.029 | 0.773 ± 0.028 | 0.783 ± 0.028 | 0.8 ± 0.028
Cc1ccccc1C [1,2-dimethylbenzene] + CCCCCCn1cc[n+](C)c1.N#C[B-](C#N)(C#N)C#N | 1.19 ± 0.04 | 1.22 ± 0.04 | 1.24 ± 0.04 | 1.26 ± 0.04 | 1.28 ± 0.04 | 1.31 ± 0.05
COC(C)(C)C [2-methoxy-2-methylpropane] + CCCCCCn1cc[n+](C)c1.N#C[B-](C#N)(C#N)C#N | 1.62 ± 0.07 | 1.66 ± 0.07 | 1.71 ± 0.07 | 1.76 ± 0.07 | 1.81 ± 0.08 | 1.87 ± 0.08
C#CCCCCC [1-heptyne] + CCCCCCn1cc[n+](C)c1.N#C[B-](C#N)(C#N)C#N | 2.92 ± 0.13 | 2.93 ± 0.13 | 2.94 ± 0.13 | 2.98 ± 0.14 | 2.99 ± 0.14 | 3.02 ± 0.14
COC(C)=O [methyl ethanoate] + CCCCCCn1cc[n+](C)c1.N#C[B-](C#N)(C#N)C#N | 0.508 ± 0.032 | 0.521 ± 0.032 | 0.538 ± 0.032 | 0.55 ± 0.032 | 0.566 ± 0.032 | 0.586 ± 0.031
CCC(=O)OC [methyl propanoate] + CCCCCCn1cc[n+](C)c1.N#C[B-](C#N)(C#N)C#N | 0.609 ± 0.031 | 0.628 ± 0.031 | 0.648 ± 0.03 | 0.668 ± 0.03 | 0.685 ± 0.03 | 0.705 ± 0.029
C1CCCC1 [cyclopentane] + CCCCCCn1cc[n+](C)c1.N#C[B-](C#N)(C#N)C#N | 4.65 ± 0.21 | 4.45 ± 0.2 | 4.28 ± 0.2 | 4.14 ± 0.19 | 4.02 ± 0.18 | 3.93 ± 0.18
CCCO [propan-1-ol] + CCCCCCn1cc[n+](C)c1.N#C[B-](C#N)(C#N)C#N | 1.19 ± 0.04 | 1.1 ± 0.03 | 1.02 ± 0.03 | 0.965 ± 0.026 | 0.913 ± 0.026 | 0.864 ± 0.027
C1CCCCCC1 [cycloheptane] + CCCCCCn1cc[n+](C)c1.N#C[B-](C#N)(C#N)C#N | 7.96 ± 0.37 | 7.46 ± 0.34 | 7.07 ± 0.32 | 6.76 ± 0.31 | 6.45 ± 0.3 | 6.21 ± 0.28
C1CCOC1 [tetrahydrofuran] + CCCCCCn1cc[n+](C)c1.N#C[B-](C#N)(C#N)C#N | 0.453 ± 0.033 | 0.47 ± 0.033 | 0.485 ± 0.033 | 0.501 ± 0.032 | 0.513 ± 0.032 | 0.527 ± 0.032
C1COCCO1 [1,4-dioxane] + CCCCCCn1cc[n+](C)c1.N#C[B-](C#N)(C#N)C#N | 0.362 ± 0.035 | 0.381 ± 0.034 | 0.401 ± 0.034 | 0.419 ± 0.034 | 0.435 ± 0.033 | 0.454 ± 0.033
CCCCCC [hexane] + CCCCCCn1cc[n+](C)c1.N#C[B-](C#N)(C#N)C#N | 11.8 ± 0.5 | 11.2 ± 0.5 | 10.6 ± 0.5 | 10.2 ± 0.5 | 9.79 ± 0.45 | 9.53 ± 0.44
CC(C)O [propan-2-ol] + CCCCCCn1cc[n+](C)c1.N#C[B-](C#N)(C#N)C#N | 1.2 ± 0.04 | 1.11 ± 0.03 | 1.03 ± 0.03 | 0.961 ± 0.026 | 0.902 ± 0.026 | 0.852 ± 0.027
CCC(C)(C)OC [2-methoxy-2-methylbutane] + CCCCCCn1cc[n+](C)c1.N#C[B-](C#N)(C#N)C#N | 2.19 ± 0.1 | 2.24 ± 0.1 | 2.27 ± 0.1 | 2.33 ± 0.11 | 2.36 ± 0.11 | 2.42 ± 0.11
CC#N [acetonitrile] + CCCCCCn1cc[n+](C)c1.N#C[B-](C#N)(C#N)C#N | 0.387 ± 0.034 | 0.391 ± 0.034 | 0.394 ± 0.034 | 0.396 ± 0.034 | 0.398 ± 0.034 | 0.4 ± 0.034
